Experimental data published in US20100317647A1 (priority 2009, published 2010).

Molecular target: human Cat S (Homo sapiens, UniProt P25774)
Assay: Cathepsin enzyme inhibition assay (fluorogenic peptide substrate cleavage)
Format: biochemical
Details: human Cat S 1 nM; substrate Z-Val-Val-Arg-AMC 20 μM; pH 6.5; fluorescence over 20 minutes
Protocol: Cathepsin Enzyme Inhibition Assay
Enzyme activity is measured by observing the increase in fluorescence intensity caused by cleavage of a peptide substrate containing a fluorophore whose emission is quenched in the intact peptide.
Assay buffer: 100 mM potassium phosphate pH 6.5, EDTA-Na 5 mM, Triton X-100 0.001%, DTT 5 mM. Enzymes (all at 1 nM): human and mouse Cathepsin S, Cat K, Cat B, Cat L. Substrate (20 μM): Z-Val-Val-Arg-AMC, except for Cat K which uses Z-Leu-Arg-AMC (both from Bachem).
AMC=7-Amino-4-Methyl-Coumarin.
DTT=dithiothreitol. Final volume: 100 μL.
Excitation 360 nm, Emission 465 nm.
Enzyme is added to the substance dilutions in 96-well microtitre plates and the reaction is started with substrate. Fluorescence emission is measured over 20 minutes, during which time a linear increase is observed in the absence of inhibitor. IC50 are calculated by standard methods. Inhibition of human Cat S, mouse Cat S, human Cat K, mouse Cat K, human Cat B, mouse Cat B, human Cat L and mouse Cat L have been measured separately. The results obtained for human Cat S are expressed in the following table.

human Cat S, sequence (P25774 115-331): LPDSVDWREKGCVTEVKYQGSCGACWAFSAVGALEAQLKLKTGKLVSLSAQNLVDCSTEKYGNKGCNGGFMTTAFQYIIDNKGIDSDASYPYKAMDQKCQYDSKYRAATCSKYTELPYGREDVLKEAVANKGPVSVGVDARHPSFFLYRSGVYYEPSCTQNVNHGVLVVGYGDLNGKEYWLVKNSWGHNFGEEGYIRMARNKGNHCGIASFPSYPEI

IC50	Compound
0.5 nM	COc1cncc(-c2ccc(S(=O)(=O)[C@H]3C[C@@H](OC)[C@H](C(=O)NC4(C#N)CC4)C3)c(C(F)(F)F)c2)c1 (racemic) [Example 86, (1R,2R,4R) and (1S,2S,4S)-2-Methoxy-4-[4-(5-methoxy-pyridin-3-yl)-2-trifluoromethyl-benzenesulfonyl]-cyclopentanecarboxylic acid (1-cyano-cyclopropyl)-amide]
0.2 nM	CO[C@@H]1C[C@H](S(=O)(=O)c2ccc(-c3cc(C)sc3C)cc2C(F)(F)F)C[C@H]1C(=O)NC1(C#N)CC1 (racemic) [Example 87, (1R,2R,4R) and (1S,2S,4S)-4-[4-(2,5-Dimethyl-thiophen-3-yl)-2-trifluoromethyl-benzenesulfonyl]-2-methoxy-cyclopentanecarboxylic acid (1-cyano-cyclopropyl)-amide]
9.1 nM	CO[C@@H]1C[C@H](S(=O)(=O)c2ccc(-n3nc(C)ccc3=O)cc2Cl)C[C@H]1C(=O)NC1(C#N)CC1 (racemic) [Example 88, (1R,2R,4R) and (1S,2S,4S)-4-[2-Chloro-4-(3-methyl-6-oxo-6H-pyridazin-1-yl)-benzenesulfonyl]-2-methoxy-cyclopentanecarboxylic acid (1-cyano-cyclopropyl)-amide]
7.4 nM	COc1ccc(S(=O)(=O)[C@H]2C[C@@H](OC)[C@H](C(=O)NC3(C#N)CC3)C2)c(Cl)c1 (racemic) [Example 89, (1R,2R,4R) and (1S,2S,4S)-4-(2-Chloro-4-methoxy-benzenesulfonyl)-2-methoxy-cyclopentanecarboxylic acid (1-cyano-cyclopropyl)-amide]
0.4 nM	CO[C@@H]1C[C@H](S(=O)(=O)c2ccc(-c3cncc(Cl)c3)cc2C(F)(F)F)C[C@H]1C(=O)NC1(C#N)CC1 (racemic) [Example 90, (1R,2R,4R) and (1S,2S,4S)-4-[4-(5-Chloro-pyridin-3-yl)-2-trifluoromethyl-benzenesulfonyl]-2-methoxy-cyclopentanecarboxylic acid (1-cyano-cyclopropyl)-amide]
0.5 nM	CO[C@@H]1C[C@H](S(=O)(=O)c2ccc(-c3c(C)noc3C)cc2C(F)(F)F)C[C@H]1C(=O)NC1(C#N)CC1 (racemic) [Example 91, (1R,2R,4R) and (1S,2S,4S)-4-[4-(3,5-Dimethyl-isoxazol-4-yl)-2-trifluoromethyl-benzenesulfonyl]-2-methoxy-cyclopentanecarboxylic acid (1-cyano-cyclopropyl)-amide]
385 nM	N#CC1(NC(=O)[C@H]2CC[C@H](S(=O)(=O)c3ccc(F)cc3Cl)C2)CC1 (racemic) [Example 92, (1S,3S) and (1R,3R)-3-(2-Chloro-4-fluoro-benzenesulfonyl)-cyclopentanecarboxylic acid (1-cyano-cyclopropyl)-amide]
565 nM	C[C@@H](Oc1ccc(S(=O)(=O)[C@H]2CC[C@H](C(=O)NC3(C#N)CC3)C2)c(Cl)c1)C(F)(F)F (racemic) [Example 93]
290 nM	N#CC1(NC(=O)[C@H]2CC[C@H](S(=O)(=O)c3ccc(N4CCOCC4)cc3Cl)C2)CC1 (racemic) [Example 94, (1S,3S) and (1R,3R)-3-(2-Chloro-4-morpholin-4-yl-benzenesulfonyl)-cyclopentanecarboxylic acid (1-cyano-cyclopropyl)-amide]
140 nM	N#CC1(NC(=O)[C@H]2CC[C@H](S(=O)(=O)c3ccc(N4CC5(COC5)C4)cc3Cl)C2)CC1 (racemic) [Example 95, (1S,3S) and (1R,3R)-3-[2-chloro-4-(2-oxa-6-aza-spiro[3.3]hept-6-yl)-benzenesulfonyl]-cyclopentanecarboxylic acid (1-cyano-cyclopropyl)-amide]
213 nM	N#CC1(NC(=O)[C@H]2CC[C@H](S(=O)(=O)c3ccc(N4CCC(F)(F)C4)cc3Cl)C2)CC1 (racemic) [Example 96, (1S,3S) and (1R,3R)-3-[2-chloro-4-(3,3-difluoro-pyrrolidin-1-yl)-benzenesulfonyl]-cyclopentanecarboxylic acid (1-cyano-cyclopropyl)-amide]
157 nM	CCN1CCN(c2ccc(S(=O)(=O)[C@H]3CC[C@H](C(=O)NC4(C#N)CC4)C3)c(Cl)c2)CC1 (racemic) [Example 97, (1S,3S) and (1R,3R)-3-[2-chloro-4-(4-ethyl-piperazin-1-yl)-benzenesulfonyl]-cyclopentanecarboxylic acid (1-cyano-cyclopropyl)-amide]
270 nM	N#CC1(NC(=O)[C@H]2CC[C@H](S(=O)(=O)c3ccc(N4CCN(C5CC5)CC4)cc3Cl)C2)CC1 (racemic) [Example 102, (1S,3S) and (1R,3R)-3-[2-Chloro-4-(4-cyclopropyl-piperazin-1-yl)-benzenesulfonyl]-cyclopentanecarboxylic acid (1-cyano-cyclopropyl)-amide]
0.4 nM	CO[C@@H]1C[C@H](S(=O)(=O)c2ccc(-c3ccnc(C(F)(F)F)c3)cc2C(F)(F)F)C[C@H]1C(=O)NC1(C#N)CC1 (racemic) [Example 109, (1R,2R,4R) and (1S,2S,4S)-2-Methoxy-4-[2-trifluoromethyl-4-(2-trifluoromethyl-pyridin-4-yl)-benzenesulfonyl]-cyclopentanecarboxylic acid (1-cyano-cyclopropyl)-amide]
0.6 nM	CO[C@@H]1C[C@H](S(=O)(=O)c2ccc(-c3ccnnc3)cc2C(F)(F)F)C[C@H]1C(=O)NC1(C#N)CC1 (racemic) [Example 110, (1R,2R,4R) and (1S,2S,4S)-2-Methoxy-4-(4-pyridazin-4-yl-2-trifluoromethyl-benzenesulfonyl)-cyclopentanecarboxylic acid (1-cyano-cyclopropyl)-amide]
0.4 nM	CO[C@@H]1C[C@H](S(=O)(=O)c2ccc(-c3cnccn3)cc2C(F)(F)F)C[C@H]1C(=O)NC1(C#N)CC1 (racemic) [Example 111, (1R,2R,4R) and (1S,2S,4S)-2-Methoxy-4-(4-pyrazin-2-yl-2-trifluoromethyl-benzenesulfonyl)-cyclopentanecarboxylic acid (1-cyano-cyclopropyl)-amide]
0.6 nM	CC(C)O[C@@H]1C[C@H](S(=O)(=O)c2ccc(Br)cc2C(F)(F)F)C[C@H]1C(=O)NC1(C#N)CC1 (racemic) [Example 112, (1R,2R,4R) and (1S,2S,4S)-4-(4-Bromo-2-trifluoromethyl-benzenesulfonyl)-2-isopropoxy-cyclopentanecarboxylic acid (1-cyano-cyclopropyl)-amide]
1.1 nM	CCO[C@@H]1C[C@H](S(=O)(=O)c2ccc(Br)cc2C(F)(F)F)C[C@H]1C(=O)NC1(C#N)CC1 (racemic) [Example 113, (1R,2R,4R) and (1S,2S,4S)-4-(4-Bromo-2-trifluoromethyl-benzenesulfonyl)-2-ethoxy-cyclopentanecarboxylic acid (1-cyano-cyclopropyl)-amide]
0.3 nM	CCO[C@@H]1C[C@H](S(=O)(=O)c2ccc(-c3ccnc(C)c3)cc2C(F)(F)F)C[C@H]1C(=O)NC1(C#N)CC1 (racemic) [Example 114, (1R,2R,4R) and (1S,2S,4S)-2-Ethoxy-4-[4-(2-methyl-pyridin-4-yl)-2-trifluoromethyl-benzenesulfonyl]-cyclopentanecarboxylic acid (1-cyano-cyclopropyl)-amide]
0.2 nM	CCO[C@@H]1C[C@H](S(=O)(=O)c2ccc(-c3c(C)noc3C)cc2C(F)(F)F)C[C@H]1C(=O)NC1(C#N)CC1 (racemic) [Example 115, (1R,2R,4R) and (1S,2S,4S)-4-[4-(3,5-Dimethyl-isoxazol-4-yl)-2-trifluoromethyl-benzenesulfonyl]-2-ethoxy-cyclopentanecarboxylic acid (1-cyano-cyclopropyl)-amide]
0.3 nM	CCO[C@@H]1C[C@H](S(=O)(=O)c2ccc(-c3cnn(C)c3)cc2C(F)(F)F)C[C@H]1C(=O)NC1(C#N)CC1 (racemic) [Example 116, (1R,2R,4R) and (1S,2S,4S)-2-Ethoxy-4-[4-(1-methyl-1H-pyrazol-4-yl)-2-trifluoromethyl-benzenesulfonyl]-cyclopentanecarboxylic acid (1-cyano-cyclopropyl)-amide]
0.2 nM	Cc1cc(-c2ccc(S(=O)(=O)[C@H]3C[C@@H](OC(C)C)[C@H](C(=O)NC4(C#N)CC4)C3)c(C(F)(F)F)c2)ccn1 (racemic) [Example 140, (1R,2R,4R) and (1S,2S,4S)-2-Isopropoxy-4-[4-(2-methyl-pyridin-4-yl)-2-trifluoromethyl-benzenesulfonyl]-cyclopentanecarboxylic acid (1-cyano-cyclopropyl)-amide]
0.2 nM	Cc1noc(C)c1-c1ccc(S(=O)(=O)[C@H]2C[C@@H](OC(C)C)[C@H](C(=O)NC3(C#N)CC3)C2)c(C(F)(F)F)c1 (racemic) [Example 141, (1R,2R,4R) and (1S,2S,4S)-4-[4-(3,5-Dimethyl-isoxazol-4-yl)-2-trifluoromethyl-benzenesulfonyl]-2-isopropoxy-cyclopentanecarboxylic acid (1-cyano-cyclopropyl)-amide]
0.2 nM	CC(C)O[C@@H]1C[C@H](S(=O)(=O)c2ccc(-c3cnn(C)c3)cc2C(F)(F)F)C[C@H]1C(=O)NC1(C#N)CC1 (racemic) [Example 142, (1R,2R,4R) and (1S,2S,4S)-2-Isopropoxy-4-[4-(1-methyl-1H-pyrazol-4-yl)-2-trifluoromethyl-benzenesulfonyl]-cyclopentanecarboxylic acid (1-cyano-cyclopropyl)-amide]
